Data: US10329294B2, “Pyrazolopyrimidine inhibitors of IRAK4 activity” (MERCK SHARP & DOHME CORP., priority 2015, dated 2019)
Where a name gives a salt, the structure may show the parent alone.

The compounds below were run against IRAK4 (Homo sapiens (Human), UniProt Q9NWZ3) (assay: IRAK4 Kinase Assay). Details: IMAP fluorescence polarization, 0.5 nM GST tagged IRAK4, 100 μM ATP, 30 minutes at 25° C.; read-out: IRAK4 IC50.
Type: biochemical
Procedure: The kinase activity of IRAK4 is determined by its ability to catalyze the phosphorylation of a fluorescent polypeptide substrate. The extent of phosphorylation is measured using the IMAP technology (Molecular Devices) where the phosphorylated fluorescent substrate binds to the large M(III)-based nanoparticles which reduces the rotational speed of the substrate and thus increases its fluorescent polarization (FP).
20 μL reaction mixture contains 10 mM TriHCl, pH 7.2, 0.5 nM GST tagged IRAK4 (SignalChem), 100 nM fluorescent peptide substrate (RP7030, Molecular Devices), 100 μM ATP, 1 mM DDT, 1 mM MgCl2, and 0.01% Tween 20. The reaction is initiated by the addition of ATP. After incubation for 30 minutes at 25° C., 60 μL of Progressive IMAP Reagent (Molecular Devices) is added to stop the reaction. Change in RP7030's FP is determined by a FP reader (Analyst HT, LJL BioSystems).

IRAK4, sequence (Q9NWZ3 whole entry): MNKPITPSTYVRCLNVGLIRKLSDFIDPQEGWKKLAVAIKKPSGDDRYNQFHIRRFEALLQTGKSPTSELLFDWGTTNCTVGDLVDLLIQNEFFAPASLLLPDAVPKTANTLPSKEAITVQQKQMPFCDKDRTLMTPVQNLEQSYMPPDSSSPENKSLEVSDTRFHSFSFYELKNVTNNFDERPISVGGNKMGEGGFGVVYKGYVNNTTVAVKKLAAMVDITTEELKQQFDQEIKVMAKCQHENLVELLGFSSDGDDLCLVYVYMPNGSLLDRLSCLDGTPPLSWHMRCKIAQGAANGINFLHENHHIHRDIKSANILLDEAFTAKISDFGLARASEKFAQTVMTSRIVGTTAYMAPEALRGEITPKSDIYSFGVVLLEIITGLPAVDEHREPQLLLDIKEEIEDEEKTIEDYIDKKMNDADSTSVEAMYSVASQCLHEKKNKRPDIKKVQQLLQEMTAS

SMILES | IC50 [nM]
Cn1cc(NC(=O)c2cnn3ccc(N4CC5CCC4CN5)nc23)c(C#N)n1 (stereo not shown) [Example 136, N-(3-cyano-1-methyl-1H-pyrazol-4-yl)-5-(2,5-diazabicyclo[2.2.2]oct-2-yl)pyrazolo[1,5-a]pyrimidine-3-carboxamide trifluoroacetate] | 49
Cn1cc(NC(=O)c2cnn3ccc(N4CCN5CCCC5C4)nc23)c(C(F)(F)F)n1 (stereo not shown) [Example 18, 5-(hexahydropyrrolo[1,2-a]pyrazin-2(1H)-yl)-N-[1-methyl-3-(trifluoromethyl)-1H-pyrazol-4-yl]pyrazolo[1,5-a]pyrimidine-3-carboxamide] | 97
Cn1cc(NC(=O)c2cnn3ccc(N[C@@H]4CCCC[C@@H]4N)nc23)c(-c2nncn2C)n1 [Example 286, 5-{[(1R,2S)-2-aminocyclohexyl]amino}-N-[1-methyl-3-(4-methyl-4H-1,2,4-triazol-3-yl)-1H-pyrazol-4-yl]pyrazolo[1,5-a]pyrimidine-3-carboxamide trifluoroacetate] | 7
Cn1cc(NC(=O)c2cnn3ccc(N4CCCNCC4)nc23)c(C(F)(F)F)n1 [Example 8, 5-(1,4-diazepan-1-yl)-N-[1-methyl-3-(trifluoromethyl)-1H-pyrazol-4-yl]pyrazolo[1,5-a]pyrimidine-3-carboxamide trifluoroacetate] | 66
Cn1cc(NC(=O)c2cnn3ccc(N[C@H]4CNCC(F)(F)C4)nc23)c(C(F)(F)F)n1 (single isomer, unassigned) [Example 219, 5-{[(3S)- or (3R)-5,5-difluoropiperidin-3-yl]amino}-N-[1-methyl-3-(trifluoromethyl)-1H-pyrazol-4-yl]pyrazolo[1,5-a]pyrimidine-3-carboxamide] | 7
Cn1cc(NC(=O)c2cnn3ccc(N[C@@H]4CCCCNC4)nc23)c(C(F)F)n1 (single isomer, unassigned) [Example 162, 5-[(3S)- or (3R)-azepan-3-ylamino]-N-[3-(difluoromethyl)-1-methyl-1H-pyrazol-4-yl]pyrazolo[1,5-a]pyrimidine-3-carboxamide trifluoroacetate] | 0.2
Cn1cc(NC(=O)c2cnn3ccc(N4CCNCC4CC(F)(F)F)nc23)c(C(F)(F)F)n1 (stereo not shown) [Example 41, N-[1-methyl-3-(trifluoromethyl)-1H-pyrazol-4-yl]-5-[2-(2,2,2-trifluoroethyl)piperazin-1-yl]pyrazolo[1,5-a]pyrimidine-3-carboxamide trifluoroacetate] | 106
N#Cc1sccc1NC(=O)c1cnn2ccc(N3CC4CCC3CN4)nc12 (stereo not shown) [Example 110, N-(2-cyanothiophen-3-yl)-5-(2,5-diazabicyclo[2.2.2]oct-2-yl)pyrazolo[1,5-a]pyrimidine-3-carboxamide trifluoroacetate] | 193
O=C(Nc1cscc1C(F)F)c1cnn2ccc(N3CCCNCC3)nc12 [Example 120, 5-(1,4-diazepan-1-yl)-N-[4-(difluoromethyl)thiophen-3-yl]pyrazolo[1,5-a]pyrimidine-3-carboxamide trifluoroacetate] | 84
O=C(Nc1cscc1Cl)c1cnn2ccc(N3CCCNCC3)nc12 [Example 167, N-(4-chlorothiophen-3-yl)-5-(1,4-diazepan-1-yl)pyrazolo[1,5-a]pyrimidine-3-carboxamide trifluoroacetate] | 480
Cn1cc(NC(=O)c2cnn3ccc(N4C[C@H](O)C[C@@H](O)C4)nc23)c(C(F)F)n1 [Example 24, N-[3-(difluoromethyl)-1-methyl-1H-pyrazol-4-yl]-5-[(3R,5R)-3,5-dihydroxypiperidin-1-yl]pyrazolo[1,5-a]pyrimidine-3-carboxamide] | 4
Cn1cc(NC(=O)c2cnn3ccc(N4C[C@@H](N)C[C@H](F)C4)nc23)c(C(F)F)n1 [Example 248, 5-[(3S,5S)-3-amino-5-fluoropiperidin-1-yl]-N-[3-(difluoromethyl)-1-methyl-1H-pyrazol-4-yl]pyrazolo[1,5-a]pyrimidine-3-carboxamide trifluoroacetate] | 0.9
O=C(Nc1cn(C(F)F)nc1C(F)(F)F)c1cnn2ccc(N3CCNCC3)nc12 [Example 300, N-[1-(difluoromethyl)-3-(trifluoromethyl)-1H-pyrazol-4-yl]-5-piperazin-1-ylpyrazolo[1,5-a]pyrimidine-3-carboxamide trifluoroacetate] | 55
Cn1cc(NC(=O)c2cnn3ccc(N[C@@H]4CNCC(F)(F)C4)nc23)c(C(F)F)n1 (single isomer, unassigned) [Example 228, N-[3-(difluoromethyl)-1-methyl-1H-pyrazol-4-yl]-5-{[(3S)- or (3R)-5,5-difluoropiperidin-3-yl]amino}pyrazolo[1,5-a]pyrimidine-3-carboxamide] | 59
Cn1cc(NC(=O)c2cnn3ccc(N4CCC[C@@H](N)C4)nc23)c(C(F)(F)F)n1 [Example 32, 5-[(3R)-3-aminopiperidin-1-yl]-N-[1-methyl-3-(trifluoromethyl)-1H-pyrazol-4-yl]pyrazolo[1,5-a]pyrimidine-3-carboxamide] | 3
N[C@@H]1[C@H](Nc2ccn3ncc(C(=O)Nc4ccccc4Br)c3n2)CCCC1(F)F [Example 108, 5-{[(1R,2R)-2-amino-3,3-difluorocyclohexyl]amino}-N-(2-bromophenyl)pyrazolo[1,5-a]pyrimidine-3-carboxamide trifluoroacetate] | 1890
Cn1cc(NC(=O)c2cnn3ccc(N4CCNCC4(C)C)nc23)c(C(F)(F)F)n1 [Example 216, 5-(2,2-dimethylpiperazin-1-yl)-N-[1-methyl-3-(trifluoromethyl)-1H-pyrazol-4-yl]pyrazolo[1,5-a]pyrimidine-3-carboxamide trifluoroacetate] | 127
CC(C)n1cc(NC(=O)c2cnn3ccc(N[C@@H]4CCCC(F)(F)[C@@H]4N)nc23)c(C(F)(F)F)n1 [Example 56, 5-{[(1R,2R)-2-amino-3,3-difluorocyclohexyl]amino}-N-[1-(1-methylethyl)-3-(trifluoromethyl)-1H-pyrazol-4-yl]pyrazolo[1,5-a]pyrimidine-3-carboxamide trifluoroacetate] | 626
CC(C)n1cc(NC(=O)c2cnn3ccc(N4CCNCC5(CC5)C4)nc23)c(C(F)(F)F)n1 [Example 51, 5-(5,8-diazaspiro[2.6]non-5-yl)-N-[1-(1-methylethyl)-3-(trifluoromethyl)-1H-pyrazol-4-yl]pyrazolo[1,5-a]pyrimidine-3-carboxamide] | 32
O=C(Nc1cn(CC(F)F)nc1C(F)(F)F)c1cnn2ccc(N3CCNCC4(CC4)C3)nc12 [Example 64, 5-(5,8-diazaspiro[2.6]non-5-yl)-N-[1-(2,2-difluoroethyl)-3-(trifluoromethyl)-1H-pyrazol-4-yl]pyrazolo[1,5-a]pyrimidine-3-carboxamide trifluoroacetate] | 18
N[C@H]1CCCC[C@H]1Nc1ccn2ncc(C(=O)Nc3ccsc3C(F)(F)F)c2n1 [Example 144, 5-{[(1R,2S)-2-aminocyclohexyl]amino}-N-[2-(trifluoromethyl)thiophen-3-yl]pyrazolo[1,5-a]pyrimidine-3-carboxamide trifluoroacetate] | 7
N[C@H]1CCCC[C@H]1Nc1ccn2ncc(C(=O)Nc3ccccc3C(F)F)c2n1 [Example 131, 5-{[(1R,2S)-2-aminocyclohexyl]amino}-N-[2-(difluoromethyl)phenyl] pyrazolo[1,5-a]pyrimidine-3-carboxamide trifluoroacetate] | 8
